In patent US20070203149A1, “CCR5 ANTAGONISTS USEFUL FOR TREATING HIV” (Schering Corporation, priority 2006, published 2007):

Tests used:
[1] = system: primary R5 HIV 1 clinical isolates; assay: Inhibition of viral replication in human PBMCs infected with primary R5 HIV 1 clinical isolates; assay type: cell-based; conditions: for IC50: Human immunodeficiency virus 1, PBMC, human PBMCs infected with primary R5 HIV 1 clinical isolates, read-out: median IC50, inhibition of viral replication
Protocol: This assay uses primary peripheral blood mononuclear cells or the stable U87-CCR5 cell line to determine the effect of anti-CCR5 compounds to block infection of primary HIV-1 strains. The primary lymphocytes are purified from normal healthy donors and stimulated in vitro with PHA and IL-2 three days prior to infection. Using a 96-well plate format, cells are pretreated with drug for 1 hour at 37° C. and subsequently infected with an M-tropic HIV-1 isolates. Following infection, the cells are washed to remove residual inoculum and cultured in the presence of compound for 4 days. Culture supernatants are harvested and viral replication measured by determination of viral p24 antigen concentration.

[2] = Human rising single dose study: metabolite profiling of plasma and urine by LC-MS/MS after oral compound of formula A; assay type: in vivo
Protocol: (M5a/M5b/M5c/M5d are potential rotamers of the compound of Formula I)
In a human rising single dose study, plasma levels of the compound of formula I relative to the compound of formula A were assessed in blood samples drawn at 2, 8, and 24 hr following oral administration of the compound of formula A. An in-house metabolite profiling method using LC-MS/MS detection was employed for this assessment. Based on this qualitative assessment of the compound of formula I in human plasma, the concentrations of the compound of formula I are projected to be up to 3-fold higher than the compound of formula A in human plasma (see FIG. 5). This is considered to be a surprising and unexpected result.

| IC50 [1] | metabolite status in human urine ([2]; 0-24 hr urine, single oral 50 mg compound of Formula A, healthy male volunteers) | metabolite status in clinical samples ([2]; first-in-man studies after administration of compound of formula A) | plasma concentration relative to the compound of formula A ([2]; human plasma, samples at 2, 8 and 24 hr after oral compound of formula A, projected from qualitative assessment) | metabolite status in human plasma ([2]; plasma 2 hr, single oral 50 mg compound of Formula A, healthy male volunteers) | Structure (SMILES) | in vitro potency relative to the compound of formula A ([1]; human PBMCs, primary R5 HIV 1 isolates, ratio of median IC50 values) | susceptibility to further metabolism ([2]; stated as consequence of being a major metabolite) |
| --- | --- | --- | --- | --- | --- | --- | --- |
| 7.5 nM |  |  |  |  | COC[C@@H](c1ccc(C(F)(F)F)cc1)N1CCN(C2(C)CCN(C(=O)c3c(C)ncnc3C)CC2)C[C@@H]1C [SCH-417690, reference compound] |  |  |
| 1 nM |  |  |  |  | Cc1ncnc(C)c1C(=O)N1CCC(C)(N2CCN([C@@H](c3cccc(F)c3)C3CCN(S(=O)(=O)C4CC4)CC3)[C@@H](C)C2)CC1 [compound of formula A, reference compound] |  |  |
| 8 nM | significant metabolite | major metabolite | up to 3 fold | significant metabolite | Cc1nc[n+]([O-])c(C)c1C(=O)N1CCC(C)(N2CCN([C@@H](c3cccc(F)c3)C3CCN(S(=O)(=O)C4CC4)CC3)[C@@H](C)C2)CC1 [compound of formula I] | approximately ⅛ | less susceptible to further rapid metabolism |
